Reference: patent publication US12312359B2 (Vitae Pharmaceuticals, LLC, priority 2016, dated 2025)
pEC50, pIC50: −log10 of the molar value.

How the values were obtained:
[1] = molecular target: T1, biotinylated wild-type menin and MLL-AF9 fusion protein (menin/MLL binding) (Homo sapiens, UniProt O00255); test: Assay 1: menin/MLL binding AlphaLISA assay, wild-type menin; conditions: Table 30; column head does not say wild-type or mutated menin
T1 construct: made in house; host or cells: menin: E. coli; MLL-AF9-FLAG: HEK293 cells, used as cleared lysate
T1 sequence (O00255 1-610): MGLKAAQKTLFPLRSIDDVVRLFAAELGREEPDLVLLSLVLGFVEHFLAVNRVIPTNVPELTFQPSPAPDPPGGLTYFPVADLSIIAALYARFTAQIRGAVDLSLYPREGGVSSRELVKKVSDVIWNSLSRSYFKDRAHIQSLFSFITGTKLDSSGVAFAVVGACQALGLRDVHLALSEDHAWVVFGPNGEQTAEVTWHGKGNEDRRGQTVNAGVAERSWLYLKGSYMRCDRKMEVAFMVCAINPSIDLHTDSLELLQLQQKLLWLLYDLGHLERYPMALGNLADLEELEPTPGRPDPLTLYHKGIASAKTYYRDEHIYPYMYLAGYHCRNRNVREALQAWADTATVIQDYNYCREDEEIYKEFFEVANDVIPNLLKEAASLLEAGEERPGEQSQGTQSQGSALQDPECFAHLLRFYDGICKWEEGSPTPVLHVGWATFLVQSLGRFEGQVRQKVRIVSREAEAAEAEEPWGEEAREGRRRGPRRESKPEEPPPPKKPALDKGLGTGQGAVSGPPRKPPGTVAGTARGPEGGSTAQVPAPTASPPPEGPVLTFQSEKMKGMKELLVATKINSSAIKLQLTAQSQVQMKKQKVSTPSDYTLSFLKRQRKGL
Method in brief: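 Compound was preincubated 30 min at room temperature with biotinylated menin (5 nM) and MLL-AF9-FLAG lysate from HEK293 cells, pH 7.4 buffer with 5% DMSO and DTT. Bead-based Alpha signal after 60 min with streptavidin donor and anti-FLAG acceptor beads; four-parameter logistic fit gave IC50.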

[2] = test system: human acute monocytic leukemia cell line MV-4-11; test: Assay 2: cell proliferation assay (ATP quantitation, CellTiter-Glo), MV-4-11; format: cell-based; conditions: MV-4-11 cells
Method in brief: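 MV-4-11 cells, 1.67×10^4 per well in medium with 10% FBS, were exposed to compound for 72 h at 37° C., 5% CO2; HL-60 cells served as toxicity control. Proliferation read as ATP content by CellTiter-Glo luminescence.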

pIC50 [1]	pEC50 ([2]; Homo sapiens, MV4-11, 72 h)	pEC50 ([2]; 72 h)	Structure (SMILES)
> 7.00	> 7.00		CC(C)c1ncncc1-c1cc(F)ccc1Oc1cncnc1N1CCC2(CCN(Cc3ccc4c(c3)NC(=O)C4(C)C)C2)C1 (centres unmarked) [Example 178, 6-((7-(5-(4-fluoro-2-(4-isopropylpyrimidin-5-yl)phenoxy)pyrimidin-4-yl)-2,7-diazaspiro[4.4]nonan-2-yl)methyl)-3,3-dimethylindolin-2-one]
> 7.00	> 7.00		CC(C)(O)c1ccccc1-c1cc(F)ccc1Oc1cncnc1N1CCC2(CCN(Cc3ccc4[nH]c(=O)[nH]c4c3)C2)C1 (centres unmarked) [Example 63, 5-((7-(5-((5-fluoro-2′-(2-hydroxypropan-2-yl)-[1,1′-biphenyl]-2-yl)oxy)pyrimidin-4-yl)-2,7-diazaspiro[4.4]nonan-2-yl)methyl)-1H-benzo[d]imidazol-2(3H)-one]
> 7.00	6.00 to 7.00		CC(C)C(=O)N(CCO)c1cc(F)ccc1Oc1cncnc1N1CCC2(CCN(Cc3ccc4[nH]c(=O)[nH]c4c3)C2)C1 (centres unmarked) [Example 185, N-(5-fluoro-2-((4-(7-((2-oxo-2,3-dihydro-1H-benzo[d]imidazol-5-yl)methyl)-2,7-diazaspiro[4.4]nonan-2-yl)pyrimidin-5-yl)oxy)phenyl)-N-(2-hydroxyethyl)iso-butyramide]
> 7.00	6.00 to 7.00		CC(C)(C)OC(=O)N[C@H]1CC[C@H](CCN2CC3(C2)CN(c2ncncc2Oc2ccc(F)cc2-c2ccc(C#N)cc2C2CC2)C3)CC1 [Example 189, tert-butyl ((1r,4r)-4-(2-(6-(5-((4′-cyano-2′-cyclopropyl-5-fluoro-[1,1′-biphenyl]-2-yl)oxy)pyrimidin-4-yl)-2,6-diazaspiro[3.3]heptan-2-yl)ethyl)cyclohexyl) carbamate]
> 7.00	> 7.00		CCN(C(=O)c1cc(F)ccc1Oc1cncnc1N1CCC2(CCN(Cc3ccc4c(c3)[nH]c(=O)n4C)C2)C1)C(C)C (centres unmarked) [Example 107, N-ethyl-5-fluoro-N-isopropyl-2-((4-(7-((1-methyl-2-oxo-2,3-dihydro-1H-benzo[d]imidazol-5-yl)methyl)-2,7-diazaspiro[4.4]nonan-2-yl)pyrimidin-5-yl)oxy)benzamide]
> 7.00	6.00 to 7.00		CC(C)c1ncncc1-c1cc(F)ccc1Oc1cncnc1N1CC2(CC(N(C)Cc3ccc(C#N)cc3)CO2)C1 (centres unmarked) [Example 181, 4-(((2-(5-(4-fluoro-2-(4-isopropylpyrimidin-5-yl)phenoxy)pyrimidin-4-yl)-5-oxa-2-azaspiro[3.4]octan-7-yl)(methyl)amino)methyl)benzonitrile]
> 7.00		6.00 to 7.00	CC(C)N(C(=O)c1cc(F)ccc1Nc1cncnc1N1CCC2(CC1)CN(C1CCC(NS(C)(=O)=O)CC1)C2)C(C)C (single isomer, unassigned) [Example 248B, 5-fluoro-N,N-diisopropyl-2-((4-(2-(4-(methylsulfonamido)cyclohexyl)-2,7-diazaspiro[3.5]nonan-7-yl)pyrimidin-5-yl)amino) benzamide]
> 7.00	6.00 to 7.00		COCCn1c(=O)[nH]c2cc(CN3CCC4(CCN(c5ncncc5Oc5ccc(F)cc5C(=O)N(C)C(C)C)C4)C3)ccc21 (centres unmarked) [Example 129, 5-fluoro-N-isopropyl-2-((4-(7-((1-(2-methoxyethyl)-2-oxo-2,3-dihydro-1H-benzo[d]imidazol-5-yl)methyl)-2,7-diazaspiro[4.4]nonan-2-yl)pyrimidin-5-yl)oxy)-N-methyl-benzamide]
> 7.00	> 7.00		CC(C)N(C(=O)c1cc(F)ccc1Oc1cncnc1N1CC2(CCN(CC(C)(C)C)C2)C1)C(C)C [Example 102, 5-fluoro-N,N-diisopropyl-2-((4-(6-neopentyl-2,6-diazaspiro[3.4]octan-2-yl)pyrimidin-5-yl)oxy)benzamide]
> 7.00	≤ 6.00		N#Cc1ccc(CCN2CC3(C2)CN(c2ncncc2Oc2ccc(F)cc2-c2ccc(C#N)cc2C2CC2)C3)cc1 [Example 203, 2′-((4-(6-(4-cyanophenethyl)-2,6-diazaspiro[3.3]heptan-2-yl)pyrimidin-5-yl)oxy)-2-cyclopropyl-5′-fluoro-[1,1′-biphenyl]-4-carbonitrile]
